Reference: ChEMBL document CHEMBL1146120 (J Med Chem, 2006)
Active and inactive are the calls of the source. No cut-off for these calls is given here.

Tests used:
[1] = tested on: Rattus norvegicus; assay: Antihypertrophic activity in Wistar rat at 21.3 mg/kg, ip; type: functional, organism-based; set-up: dose 21.3 mg/kg
[2] = organism: Rattus norvegicus; assay: Inhibition of NO-mediated vasorelaxation of KCl-induced contractile tone in Wistar rat thoracic aortic ring; type: functional; settings: Aorta
[3] = organism: Rattus norvegicus; assay: Activity against NO-mediated vasorelaxation of KCl-induced contractile tone in Wistar rat thoracic aortic ring; type: functional; settings: Aorta
[4] = target: T1, Type-1 angiotensin II receptor (Homo sapiens) (UniProt P30556); assay: Antagonist activity against AT1 receptor after 20 min preincubation; type: functional
T1 sequence (whole entry): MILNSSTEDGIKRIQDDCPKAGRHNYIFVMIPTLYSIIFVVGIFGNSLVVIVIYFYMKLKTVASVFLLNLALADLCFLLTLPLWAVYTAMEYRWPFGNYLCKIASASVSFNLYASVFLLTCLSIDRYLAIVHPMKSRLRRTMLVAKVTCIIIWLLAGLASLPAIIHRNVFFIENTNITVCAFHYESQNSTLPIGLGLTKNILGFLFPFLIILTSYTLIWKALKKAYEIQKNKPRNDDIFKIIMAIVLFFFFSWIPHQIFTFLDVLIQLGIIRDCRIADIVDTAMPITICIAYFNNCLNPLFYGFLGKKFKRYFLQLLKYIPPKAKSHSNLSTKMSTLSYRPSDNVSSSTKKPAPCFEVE

[5] = organism: Rattus norvegicus; assay: Activity against NO-mediated vasorelaxation of KCl-induced contractile tone in Wistar rat thoracic aortic ring at 1 uM; type: functional
[6] = target: T1, Type-1 angiotensin II receptor (Homo sapiens); assay: Antagonist activity against AT1 receptor after 60 min preincubation; type: functional
[7] = tested on: Plasma; assay: Inhibition of ADP-mediated platelet aggregation in Wistar rat platelet-rich plasma at 100 uM; type: functional; set-up: scale not given: the % may be the effect or the level left

| IC50 [2] | Kb [4] | Kb [6] | Compound | Activity [1] | Emax [3] | Activity ([5]; Aorta) | Activity [5] | Activity [7] |
| --- | --- | --- | --- | --- | --- | --- | --- | --- |
|  |  |  | C[C@H](CS)C(=O)N1CCC[C@H]1C(=O)O | Active |  |  |  |  |
| 275 nM | inactive |  | CCCCc1nc(Cl)c(C(=O)Oc2ccc(CO[N+](=O)[O-])cc2)n1Cc1ccc(-c2ccccc2-c2nn[nH]n2)cc1 |  | 100% | Active |  |  |
| 12300 nM | 8 nM |  | CCCCc1nc(Cl)c(COC(=O)c2cccc(CO[N+](=O)[O-])n2)n1Cc1ccc(-c2ccccc2-c2nn[nH]n2)cc1 |  | 100% |  | <25% |  |
| 851 nM | 16 nM |  | CCCCc1nc(Cl)c(COC(=O)CCCCO[N+](=O)[O-])n1Cc1ccc(-c2ccccc2-c2nn[nH]n2)cc1 |  | 100% |  |  |  |
| 6030 nM |  |  | CCCCc1nc(Cl)c(C(=O)Oc2cccc(CO[N+](=O)[O-])c2)n1Cc1ccc(-c2ccccc2-c2nn[nH]n2)cc1 |  | 100% |  | <25% |  |
| 66.1 nM | 19 nM |  | CCCCc1nc(Cl)c(COC(=O)c2ccc(CO[N+](=O)[O-])cc2)n1Cc1ccc(-c2ccccc2-c2nn[nH]n2)cc1 |  | 100% | Active |  |  |
| 7760 nM | inactive | 8 nM | CCCCc1nc(Cl)c(COC(=O)c2ccc(C(C)O[N+](=O)[O-])cc2)n1Cc1ccc(-c2ccccc2-c2nn[nH]n2)cc1 (stereo not given) |  | 100% |  | <25% |  |
| 15100 nM | inactive | 3 nM | CCCCc1nc(Cl)c(CO[N+](=O)[O-])n1Cc1ccc(-c2ccccc2-c2nn[nH]n2)cc1 [LOSARTAN NITROOXY ESTER] |  | 100% |  | <25% |  |
|  | inactive | 12 nM | CCCCc1nc(Cl)c(COC(=O)c2cccc(C(C)O[N+](=O)[O-])c2)n1Cc1ccc(-c2ccccc2-c2nn[nH]n2)cc1 (stereo not given) |  | 47% |  | <25% |  |
| 32400 nM | inactive |  | CCCCc1nc(Cl)c(COC(=O)c2c(C)ccc(CO[N+](=O)[O-])c2C)n1Cc1ccc(-c2ccccc2-c2nn[nH]n2)cc1 |  | 100% |  | <25% |  |
| 275 nM |  | 10 nM | CCCCc1nc(Cl)c(COC(=O)c2cccc(CO[N+](=O)[O-])c2)n1Cc1ccc(-c2ccccc2-c2nn[nH]n2)cc1 | Active | 100% | Active |  | 41% |
|  |  |  | CCCCc1nc(Cl)c(CO)n1Cc1ccc(-c2ccccc2-c2nnn[nH]2)cc1 [LOSARTAN] | Active |  |  |  | 50% |
